≈ marks a conversion by molar mass, not a printed value. Where “and” joins values, the source holds several entries; their conditions need not be identical. Equal values may be shown once.
How the values were obtained:
Aspergillus niger = experiment: Antifungal activity against Aspergillus niger assessed as […] growth inhibition; assay type: functional
Pseudomonas aeruginosa [1] = experiment: Antibacterial activity against Pseudomonas aeruginosa assessed as bacterial growth inhibition; assay type: functional
Escherichia coli = experiment: Antibacterial activity against Escherichia coli assessed as bacterial growth inhibition; assay type: functional
Candida albicans = experiment: Antifungal activity against Candida albicans assessed as […] growth inhibition; assay type: functional
Bacillus subtilis = experiment: Antibacterial activity against Bacillus subtilis assessed as bacterial growth inhibition; assay type: functional
[2] = test system: Staphylococcus epidermidis; experiment: Antibacterial activity against Staphylococcus epidermidis assessed as bacterial growth inhibition; assay type: functional
[3] = test system: Mycobacterium tuberculosis; experiment: Antibacterial activity against Mycobacterium tuberculosis H37Rv ATCC 27294 strain assessed as bacterial growth inhibition by MABA Assay; assay type: functional
[4] = test system: Staphylococcus epidermidis; experiment: Antibacterial activity against Staphylococcus epidermidis assessed as bacterial growth inhibition incubated for 12 hrs by well plate assay; assay type: functional
Staphylococcus aureus = experiment: Antibacterial activity against Staphylococcus aureus assessed as bacterial growth inhibition incubated for 12 hrs by well plate assay; assay type: functional
Pseudomonas aeruginosa [5] = experiment: Antibacterial activity against Pseudomonas aeruginosa assessed as bacterial growth inhibition incubated for 12 hrs by well plate assay; assay type: functional
Klebsiella pneumoniae = experiment: Antibacterial activity against Klebsiella pneumoniae assessed as bacterial growth inhibition incubated for 12 hrs by well plate assay; assay type: functional
MCF7 [6] = experiment: Anticancer activity against human MCF7 cells assessed as cell growth inhibition incubated for 24 hrs by ELISA assay; assay type: functional, cell-based; settings: MCF7, 24 h
[7] = test system: Mycobacterium tuberculosis; experiment: Antibacterial activity against Mycobacterium tuberculosis H37Ra ATCC 25177 assessed as bacterial growth inhibition by XTT Reduction Menadione Assay; assay type: functional
MCF7 [8] = experiment: Anticancer activity against human MCF7 cells assessed as cell growth inhibition incubated for 24 hrs by MTT assay; assay type: functional, cell-based; settings: MCF7, 24 h
Plasmodium falciparum [9] = experiment: Antimalarial activity against Plasmodium falciparum 3D7 strain by MSF assay; assay type: functional, organism-based
Plasmodium falciparum [10] = experiment: Antimalarial activity against Plasmodium falciparum RKL-2 strain incubated for 40 hrs by Giemsa staining based microscopic analysis; assay type: functional, organism-based; settings: RKL-2, 40 h
Plasmodium falciparum [11] = experiment: Antimalarial activity against Plasmodium falciparum 3D7 strain incubated for 40 hrs by Giemsa staining based microscopic analysis; assay type: functional, organism-based; settings: 3D7, 40 h
Plasmodium berghei = experiment: In vivo antimalarial activity against Plasmodium berghei infected in swiss albino mouse at 50 microg/kg, ip administered as single dose for 4 to 6 weeks relative to control; assay type: functional; settings: dose 50 µg/kg, time 4-6 weeks
MDA-MB-231 = experiment: Anticancer activity against human MDA-MB-231 cells assessed as cell growth inhibition by MTT assay; assay type: functional, cell-based
HEK293 = experiment: Anticancer activity against human HEK293 cells assessed as cell growth inhibition by MTT assay; assay type: functional
MCF7 [12] = experiment: Anticancer activity against human MCF7 cells assessed as cell growth inhibition by MTT assay; assay type: functional, cell-based
DU-145 = experiment: Anticancer activity against human DU-145 cells assessed as cell growth inhibition by MTT assay; assay type: functional, cell-based
Pseudomonas aeruginosa [13] = experiment: Antibacterial activity against Pseudomonas aeruginosa ATCC 27853 strain assessed as bacterial growth inhibition incubated for 24 hrs; assay type: functional
[14] = biological target: Enoyl-[acyl-carrier-protein] reductase [NADH] (Mycobacterium tuberculosis) (UniProt P9WGR1); experiment: Inhibition of Mycobacterium tuberculosis InhA at 50 microM relative to control
HeLa = experiment: Anticancer activity against human HeLa cells assessed as cell growth inhibition incubated for 48 hrs by MTT assay; assay type: functional, cell-based
[15] = Pseudomonas aeruginosa, read-out: MIC
[16] = Escherichia coli, read-out: MIC

Sequence of Enoyl-[acyl-carrier-protein] reductase [NADH] (Mycobacterium tuberculosis) (P9WGR1 whole entry): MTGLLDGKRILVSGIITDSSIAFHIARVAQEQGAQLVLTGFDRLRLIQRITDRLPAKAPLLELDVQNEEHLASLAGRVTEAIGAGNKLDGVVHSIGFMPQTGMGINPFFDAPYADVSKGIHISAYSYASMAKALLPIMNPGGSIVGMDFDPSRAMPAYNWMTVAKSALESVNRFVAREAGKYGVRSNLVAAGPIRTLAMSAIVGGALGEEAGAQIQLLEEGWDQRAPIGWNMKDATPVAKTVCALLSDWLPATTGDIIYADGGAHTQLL

Cc1cc(O)c(C(=O)/C=C/c2ccc(OCc3cn(Cc4ccc(Br)cc4)nn3)cc2)c(=O)o1
MIC (Aspergillus niger; Aspergillus niger, read-out: MIC): 3 µM (≈ 1.57 µg/mL)
MIC (Pseudomonas aeruginosa [1]; [15]): 3 µM
MIC (Escherichia coli; [16]): 3 µM
MIC (Candida albicans; Candida albicans, read-out: MIC): 3 µM (≈ 1.57 µg/mL)
MIC (Bacillus subtilis; Bacillus subtilis, read-out: MIC): 3 µM (≈ 1.57 µg/mL)
MIC ([2]; Staphylococcus epidermidis, read-out: MIC): 3 µM (≈ 1.57 µg/mL)

COc1ccc(C(=O)Cn2cc(CNC(=O)c3cc4cc(OC)ccc4nc3Cl)nn2)cc1
MIC [3]: 1.6 µg/mL (≈ 3.43 µM)

COc1ccccc1/N=C/c1c(OCc2cn(CCC[Si]34OCCN(CCO3)CCO4)nn2)ccc2ccccc12
MIC [4]: 26.5 µg/mL (≈ 46.2 µM)
MIC (Staphylococcus aureus): 26.5 µg/mL (≈ 46.2 µM)
MIC (Pseudomonas aeruginosa [5]): 106 µg/mL (≈ 185 µM)
MIC (Klebsiella pneumoniae): 106 µg/mL (≈ 185 µM)

O=C(Cn1cc(-c2ccccc2)nn1)Nc1ccc(F)cc1
MIC (Aspergillus niger): 0.201 umol/cm3
MIC (Pseudomonas aeruginosa [1]): 0.201 umol/cm3
MIC (Escherichia coli): 0.201 umol/cm3
MIC (Candida albicans): 0.201 umol/cm3
MIC (Bacillus subtilis): 0.201 umol/cm3
MIC [2]: 0.201 umol/cm3

COc1cc2ncnc(Nc3ccc(Cn4cc(-c5ccccc5)nn4)cc3)c2cc1OC
IC50 (MCF7 [6]): 20.7 µM

CC(=O)Nc1ccc(N2C=C(C(c3c[nH]c4ccc(Br)cc34)c3c[nH]c4ccc(Br)cc34)NN2)cc1
MIC [7]: 3 µg/mL and 1 µg/mL

COc1ccc2nc(Cl)c(C(=O)NCc3cn(Cc4ccc(C#N)cc4)nn3)cc2c1
MIC [3]: 1.6 µg/mL (≈ 3.7 µM)

CCOC(=O)[C@H]1Cc2c([nH]c3ccccc23)CN1Cc1cn(CCCN2C(=O)C(=O)c3ccccc32)nn1
IC50 (MCF7 [8]): 37.4 µM

O=C1C(=O)N(CCCn2cc(COCCOc3ccc(/C(=C(/CCCl)c4ccccc4)c4ccccc4)cc3)nn2)c2c(Br)cc(Br)cc21
IC50 (MCF7 [8]): 16.5 µM

[N-]=[N+]=NCC(=O)NCCNc1ccnc2cc(Cl)ccc12
IC50 (Plasmodium falciparum [9]): 0.0387 µM

COc1ccc(Cn2cc(CNC(=O)c3cc4cc(OC)ccc4nc3Cl)nn2)cc1
MIC [3]: 1.6 µg/mL (≈ 3.65 µM)

NC(=O)N/N=C/c1ccc(OCc2cn(-c3ccc(F)cc3)nn2)cc1
MIC (Pseudomonas aeruginosa [1]; [15]): 35.3 µM

C[C@H]1[C@H](N=[N+]=[N-])O[C@@H]2O[C@]3(C)CC[C@H]4[C@H](C)CC[C@@H]1[C@@]24OO3
IC50 (Plasmodium falciparum [10]): 0.865 µg/mL (≈ 2.8 µM)
IC50 (Plasmodium falciparum [11]): 0.066 µg/mL (≈ 0.213 µM)
Activity (Plasmodium berghei): 59%

O=C1C(=O)N(Cc2cn(CC/C(=C(\c3ccccc3)c3ccc(OCCO)cc3)c3ccccc3)nn2)c2c(Br)cc(Br)cc21
IC50 (MDA-MB-231): 19.2 µM
IC50 (HEK293): >100 µM
IC50 (MCF7 [12]): 31.6 µM

COc1ccc2nc(Cl)c(C(=O)NCc3cn(Cc4ccccc4)nn3)cc2c1
MIC [3]: 1.6 µg/mL (≈ 3.92 µM)

COc1cc([C@H]2c3cc4c(cc3[C@H](OCc3cn([C@@H]5O[C@H](COC(C)=O)[C@@H](OC(C)=O)[C@H](OC(C)=O)[C@H]5OC(C)=O)nn3)[C@@H]3COC(=O)[C@@H]23)OCO4)cc(OC)c1OC
IC50 (DU-145): 1.02 µM

CCOP(=O)(CCCCn1cc(Cn2cnc3ccccc3c2=O)nn1)OCC
MIC (Pseudomonas aeruginosa [13]): 0.625 µg/mL (≈ 1.49 µM)

COc1cc(-n2cc(CS(=O)(=O)C3c4ccccc4-c4ccccc43)nn2)cc(OC)c1OC
inhibition [14]: 73%

COc1cc([C@H]2c3cc4c(cc3[C@H](OCc3cn([C@@H]5O[C@H](COC(C)=O)[C@H](OC(C)=O)[C@H](OC(C)=O)[C@H]5OC(C)=O)nn3)[C@@H]3COC(=O)[C@@H]23)OCO4)cc(OC)c1OC
IC50 (MCF7 [12]): 1.25 µM

Cc1ccc(Cn2cc(CN3C(=O)C4(C(C#N)=C(N)Oc5cc6c(cc54)[nH]c4ccccc46)c4cc(F)ccc43)nn2)cc1 (centres undefined)
IC50 (HeLa): 3.35 µM

COc1ccc2nc(Cl)c(C(=O)NCc3cn(C(=O)c4ccc(F)cc4)nn3)cc2c1
MIC (Pseudomonas aeruginosa [1]; [15]): 6.25 µg/mL
MIC (Escherichia coli; [16]): 6.25 µg/mL
